This experiment concerns the target T1, HPRT1 (Homo sapiens, UniProt P00492).
T1 sequence (P00492 2-218): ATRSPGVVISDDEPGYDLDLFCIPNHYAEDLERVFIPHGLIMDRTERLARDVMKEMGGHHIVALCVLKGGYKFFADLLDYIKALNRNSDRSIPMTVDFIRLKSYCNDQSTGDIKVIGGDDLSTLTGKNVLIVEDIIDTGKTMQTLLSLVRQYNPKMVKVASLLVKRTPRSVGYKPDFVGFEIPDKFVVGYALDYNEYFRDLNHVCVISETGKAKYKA
Kind of experiment: biochemical.

Molecule `O=c1[nH]cnc2nc[nH]c12` [HX, hypoxanthine] registered an IC50 of 7.7 µM.

Broadly, the IC50 is the point on the concentration scale where inhibition reaches its midpoint.

Source of the values: PMC4670083 (Nature medicine, 2015).
